{"source": "patent US11040041B2", "about": "“Method of treating pulmonary arterial hypertension” (Cipla (UK) Limited, priority 2015, dated 2021)", "key": {"[1]": {"system": "rats with monocrotaline induced pulmonary arterial hypertension", "assay": "Hemodynamic evaluation in anesthetized rats treated with monocrotaline to induce pulmonary arterial hypertension", "assay_type": "in vivo, Sprague-Dawley rats", "settings": "3.25 mg/kg dosing (so in the source), after 28 days"}, "[2]": {"system": "rats with monocrotaline induced pulmonary arterial hypertension", "assay": "Hemodynamic evaluation in anesthetized rats treated with monocrotaline to induce pulmonary arterial hypertension", "assay_type": "in vivo, Sprague-Dawley rats", "settings": "for RV/LV + S: Fulton's Index; for RV/LV + S / Body Weight / HR / HW/BW / Heart Wt / LV Wt / Lung Wt / MAP / Mean PAP / RV Wt / RV/BW / Systolic PAP: day 28 after monocrotaline, mean ± SEM", "description": "The studies were conducted for Hemodynamic Evaluation of Paliperidone palmitate in Anesthetized Sprague Dawley Rats Treated with Monocrotaline to Induce Pulmonary Arterial Hypertension. Sildenafil was used as an internal control to compare the effects of Paliperidone palmitate.\nAdult male Sprague-Dawley rats (287±4 g) were obtained from Charles River Laboratories (Raleigh, N.C.). Animals housed individually in a temperature/humidity controlled room with 12-hour light/dark cycles, had free access to water and food and were acclimated for one week prior to the study. Rats were randomly assigned (n=10 per group). Rats in groups 1 and 2 served as healthy controls; the remaining rats were injected subcutaneously on Day 0 with 60 mg/kg body weight monocrotaline, the toxic alkaloid of Crotalaria spectabilis, (dissolved in DMSO at a concentration of 60 mg/ml, Sigma Aldrich, St. Louis, Mo.). On days 1-21, the rats were dosed via oral gavage (2 ml/kg) with vehicle (PBS), or the test compound—Paliperidone palmitate. Rats were weighed daily, and the dosages of test compound adjusted appropriately.\nMonocrotaline (MCT) is an 11-membered macrocyclic pyrrolizidine plant alkaloid. A single SQ injection into rats results in hepatic generation of toxic metabolite—MCT pyrrole. Phase II metabolism of MCT is through glutathione conjugation. Reactive metabolite is transported to lungs, injuring pulmonary vasculature.\nThe effects of sildenafil and Paliperidone palmitate were evaluated in rats with monocrotaline induced pulmonary arterial hypertension. Male Sprague-Dawley rats were orally administered vehicle, Paliperidone palmitate (1.25 or 3.75 mg/kg, once every day for 28 days starting on Day 1, or sildenafil (30 mg/kg, administered twice daily) (n=10 in each group). Rats received a single injection of monocrotaline (60 mg/kg, s.c.) on Study Day 1. On the twenty-eighth day following monocrotaline dosing, the rats were anesthetized with ketamine/xylazine for terminal monitoring of pulmonary and systemic arterial pressures along with heart rate.\nThe Table 1 gives the study design for the test article and vehicle administrations."}, "[3]": {"settings": "Paliperidone palmitate 1.25 mg/kg oral once daily"}, "[4]": {"settings": "Paliperidone palmitate 3.75 mg/kg oral once daily"}, "[5]": {"settings": "after 28 days, monocrotaline rats"}, "[6]": {"settings": "Sildenafil 60 mg/kg/day bid oral"}}}
{"compound": "CCCCCCCCCCCCCCCC(=O)OC1CCCn2c1nc(C)c(CCN1CCC(c3noc4cc(F)ccc34)CC1)c2=O", "note": "(stereo not shown) [Paliperidone palmitate, Hexadecanoic acid 3-[2-[4-(6-fluoro-1,2-benzisoxazol-3-yl)piperidin-1-yl]ethyl]-2-methyl-4-oxo-6,7,8,9-tetrahydro-4H-pyri do[1,2-a]pyrimidin-9-yl ester]", "values": [{"measurement": "reduction in systolic pulmonary arterial pressure compared to the vehicle group", "setting": "[1]", "result": 20, "unit": "%"}, {"measurement": "reduction in systolic pulmonary arterial pressure compared to the vehicle group", "setting": "[2]; 1.25 mg/kg dosing, after 28 days, monocrotaline rats", "result": 25, "unit": "%"}, {"measurement": "right ventricular hypertrophy (RV/LV+S, Fulton's Index) change compared to vehicle", "setting": "[2]; 1.25 mg/kg, after 28 days, monocrotaline rats", "result": "−12", "unit": "%"}, {"measurement": "right ventricular hypertrophy (RV/LV+S, Fulton's Index) change compared to vehicle", "setting": "[2]; 3.75 mg/kg, after 28 days, monocrotaline rats", "result": "−7", "unit": "%"}, {"measurement": "RV/LV + S", "setting": "[2]; [3]", "result": "0.52 ± 0.04"}, {"measurement": "RV/LV + S", "setting": "[2]; [4]", "result": "0.55 ± 0.06"}, {"measurement": "Body Weight", "setting": "[2]; [3]", "result": "0.33 ± 0.02", "unit": "kg"}, {"measurement": "HR", "setting": "[2]; [3]", "result": "253 ± 36", "unit": "bpm"}, {"measurement": "HW/BW", "setting": "[2]; [3]", "result": "3.94 ± 0.22"}, {"measurement": "Heart Wt", "setting": "[2]; [3]", "result": "1.28 ± 0.03", "unit": "g"}, {"measurement": "LV Wt", "setting": "[2]; [3]", "result": "0.77 ± 0.01", "unit": "g"}, {"measurement": "Lung Wt", "setting": "[2]; [3]", "result": "2.59 ± 0.13", "unit": "g"}, {"measurement": "MAP", "setting": "[2]; [3]", "result": "54 ± 9", "unit": "mm Hg"}, {"measurement": "Mean PAP", "setting": "[2]; [3]", "result": "34 ± 1", "unit": "mm Hg"}, {"measurement": "RV Wt", "setting": "[2]; [3]", "result": "0.39 ± 0.02", "unit": "g"}, {"measurement": "RV/BW", "setting": "[2]; [3]", "result": "1.22 ± 0.10"}, {"measurement": "Systolic PAP", "setting": "[2]; [3]", "result": "45 ± 3", "unit": "mm Hg"}, {"measurement": "Body Weight", "setting": "[2]; [4]", "result": "0.33 ± 0.02", "unit": "kg"}, {"measurement": "HR", "setting": "[2]; [4]", "result": "312 ± 12", "unit": "bpm"}, {"measurement": "HW/BW", "setting": "[2]; [4]", "result": "3.92 ± 0.21"}, {"measurement": "Heart Wt", "setting": "[2]; [4]", "result": "1.28 ± 0.06", "unit": "g"}, {"measurement": "LV Wt", "setting": "[2]; [4]", "result": "0.73 ± 0.03", "unit": "g"}, {"measurement": "Lung Wt", "setting": "[2]; [4]", "result": "2.23 ± 0.04", "unit": "g"}, {"measurement": "MAP", "setting": "[2]; [4]", "result": "68 ± 5", "unit": "mm Hg"}, {"measurement": "Mean PAP", "setting": "[2]; [4]", "result": "39 ± 3", "unit": "mm Hg"}, {"measurement": "RV Wt", "setting": "[2]; [4]", "result": "0.40 ± 0.03", "unit": "g"}, {"measurement": "RV/BW", "setting": "[2]; [4]", "result": "1.22 ± 0.12"}, {"measurement": "Systolic PAP", "setting": "[2]; [4]", "result": "48 ± 3", "unit": "mm Hg"}, {"measurement": "differences in heart rate compared to vehicle", "setting": "[2]; [5]", "result": "No substantive differences"}, {"measurement": "differences in mean arterial pressure compared to vehicle", "setting": "[2]; [5]", "result": "No substantive differences"}, {"measurement": "decrease in hypertrophy, RV (wt) corrected by body weight", "setting": "[2]; at either dose (1.25 or 3.75 mg/kg), after 28 days, monocrotaline rats", "result": 19, "unit": "%"}, {"measurement": "development of PAH in the rat monocrotaline (MCT) model", "setting": "[2]; daily oral doses, text says three weeks", "result": "prevent the development of PAH"}]}
{"compound": "CCCc1nn(C)c2c(=O)[nH]c(-c3cc(S(=O)(=O)N4CCN(C)CC4)ccc3OCC)nc12", "note": "[Sildenafil]", "values": [{"measurement": "RV/LV + S", "setting": "[2]; [6]", "result": "0.51 ± 0.03"}, {"measurement": "Body Weight", "setting": "[2]; [6]", "result": "0.32 ± 0.01", "unit": "kg"}, {"measurement": "HR", "setting": "[2]; [6]", "result": "278 ± 21", "unit": "bpm"}, {"measurement": "HW/BW", "setting": "[2]; [6]", "result": "3.89 ± 0.17"}, {"measurement": "Heart Wt", "setting": "[2]; [6]", "result": "1.24 ± 0.02", "unit": "g"}, {"measurement": "LV Wt", "setting": "[2]; [6]", "result": "0.74 ± 0.02", "unit": "g"}, {"measurement": "Lung Wt", "setting": "[2]; [6]", "result": "2.36 ± 0.13", "unit": "g"}, {"measurement": "MAP", "setting": "[2]; [6]", "result": "69 ± 5", "unit": "mm Hg"}, {"measurement": "Mean PAP", "setting": "[2]; [6]", "result": "38 ± 6", "unit": "mm Hg"}, {"measurement": "RV Wt", "setting": "[2]; [6]", "result": "0.38 ± 0.02", "unit": "g"}, {"measurement": "RV/BW", "setting": "[2]; [6]", "result": "1.19 ± 0.09"}, {"measurement": "Systolic PAP", "setting": "[2]; [6]", "result": "46 ± 7", "unit": "mm Hg"}, {"measurement": "differences in heart rate compared to vehicle", "setting": "[2]; [5]", "result": "No substantive differences"}, {"measurement": "differences in mean arterial pressure compared to vehicle", "setting": "[2]; [5]", "result": "No substantive differences"}, {"measurement": "decrease in hypertrophy, RV (wt) corrected by body weight", "setting": "[2]; sildenafil (30 mg/kg twice daily), after 28 days, monocrotaline rats", "result": 21, "unit": "%"}, {"measurement": "right ventricular hypertrophy (RV/LV+S, Fulton's Index) change compared to vehicle", "setting": "[2]; sildenafil cohort (30 mg/kg twice daily), after 28 days, monocrotaline rats", "result": "−14", "unit": "%"}, {"measurement": "reduction of SPAP compared to the vehicle group", "setting": "[2]; sildenafil group (30 mg/kg twice daily), after 28 days, monocrotaline rats", "result": 23, "unit": "%"}]}
